This assay deals with eWAT and colon mRNA expression. Put plainly: Quantitative real-time PCR of eWAT and colon of HFD-F mice. The assay is classed as in vivo. To be noted: 30 mg/kg/day by gavage. From the text:
C57BL/6J male mice were fed a high fat diet (HFD) containing 59 KJ% fat plus 1% cholesterol, w/o sugar (ssniff ® EF R/M acc. D12330 mod. 22,7 ME/kg) and fructose (HFD-F) in drinking water (42 g/L), or normal chow diet for 61 days. Food intake was estimated as the difference of weight between the offered and the remnant amount of food at 3-days intervals. The food was provided as pressed pellets and the residual spillage was not considered. After 7 days, HFD-F mice were randomized to receive HFD-F alone or in combination with compound 2 (30 mg/kg/day) by gavage until the end of the experiment. Doses of each agent were chosen according to previously published data. Mice were housed under controlled temperature (22°C) and photoperiods (12:12-h light/dark cycle), allowed unrestricted access to standard mouse chow and tap water. The experimental protocol was approved by the Animal Care and Use Committee of the University of Perugia and by the Italian Minister of Health and Istituto Superiore di Sanità (Italy) and was in agreement with the European guidelines for use of experimental animals (permission n. 583/2017-PR). The general health of the animals was monitored daily by the Veterinarian in the animal facility. At the day of sacrifice, fed mice were deeply anesthetized with a mixture of tiletamine hypochloride and zolazepam hypochloride/xylazine at a dose of 50/5 mg/kg and sacrificed before 12 a.m.
RNA was extracted from eWAT and colon with Direct-zol™ RNA MiniPrep w/Zymo-Spin™ IIC Columns (Zymo Research, Irvine, CA) and it was subjected to reverse transcription with FastGene Scriptase Basic Kit (Nippon Genetics Europe) in a 20 μL reaction volume.
For real time PCR, 50 ng cDNA were amplified in a 20 μL solution containing 200 nM of each primer and 10 μL of SYBR Select Master Mix (Thermo Fisher Scientific, Waltham, MA, United States). All reactions were performed in triplicate, and the thermal cycling conditions were as follows: 10 min at 95°C, followed by 40 cycles of 95°C for 10 s and 60°C for 45 s with QuantStudio™ 3 Real-Time PCR System (Applied Biosystems). The relative mRNA expression was calculated and expressed as 2−(ΔΔCt). Expression of the respective gene was normalized against Gapdh mRNA as an internal control. The following primers for Real-Time PCR were used: mouse-Gapdh: ctgagtatgtcgtggagtctac and gttggtggtgcaggatgcattg; mouse-Srebf1: gatcaaagaggagccagtgc and tagatggtggctgctgagtg; mouse-Fasn: tcaagatgaaggtggcagaggtgct and ttgagcagtgccgggattcgg; mouse-Pgc1α: cttagcactcagaaccatgcag and aatgctcttcgctttattgctc; mouse-Fxr: actggaccacgaagatcagatt and gagcgtactcctcctgagtcat; mouse-adiponectin: tgacagatcagctcgagtgg and cagtgccgtcagttcttgtg; mouse-Tnf-α: ccaccacgctcttctgtcta and agggtctgggccatagaact; mouse-ucp2: ttgcccgtaatgccattgtc and gcaagggaggtcatctgtca; mouse-cd11b gtcagagtctgcctccgtgt and cagggtctaaagccaggtca; mouse-pparγ: gccagtttcgatccgtagaa and aatccttggccctctgagat; mouse-Il-1β: gctgaaagctctccacctca and aggccacaggtattttgtcg; mouse-Gcg: ccaagattttgtgcagtggtt and ccttcagcatgcctctcaaa.
In general terms: Real-time PCR tracks product formation cycle by cycle.

On to `O=C(O)c1cccc(-c2ccc(OCc3ccc4ccccc4n3)cc2)c1` [Compound 2, 4'-(quinolin-2-ylmethoxy)-[1,1′-biphenyl]-3-carboxylic acid], for which the “colon expression of Gcg” value is listed as “upregulated”, the “colon expression of Il-1β” value is on record as “strongly reduced”, the “eWAT expression of Cd11b” value is reported as “robustly reduced” and the “eWAT expression of Tnf-α” value is listed as “robustly reduced”. The “eWAT expression of Ucp2” value is listed as “upregulated”.

The values above are taken from PMC9085577, “Discovery of a Potent and Orally Active Dual GPBAR1/CysLT1R Modulator for the Treatment of Metabolic Fatty Liver Disease” (Frontiers in Pharmacology, 2022).
